Experimental findings from US20160214983A1, “3,7-DIAZABICYCLO[3.3.1]NONANE CARBOXAMIDES AS ANTITHROMBOTIC AGENTS” (COUNCIL OF SCIENTIFIC & INDUSTRIAL RESEARCH, priority 2013, published 2016) are described below.

Values joined by “and” are separate entries in the source; they are usually repeats but may differ in a detail not shown here. Equal entries are not always repeated.

For test [1], the system named is collagen plus epinephrine induced pulmonary thromboembolism. Put plainly: Collagen-epinephrine induced pulmonary thromboembolism in mice. In kind it is in vivo. How it is done:
To assess the antithrombotic efficacy of compounds, mice were grouped into vehicle, aspirin and compound treated groups, and each group included ten animals. Pulmonary thromboembolism was induced by injecting a mixture of collagen (150 μg/ml) and adrenaline (50 μg/ml) into the tail vein to achieve final doses of collagen (1.5 mg/kg) and adrenaline (0.5 mg/kg) to induce hind limb paralysis or death.^11, 12 Number of test animals killed or paralyzed were evaluated (death/paralysis were employed as endpoint to evaluate antithrombotic agents). The percent protection was calculated by taking the ratio of number of test animals killed or paralyzed to that of total tested animals. Results have been reported as percentage protection, which represents protection against collagen and epinephrine induced thromboembolism and expressed as;
Percent Protection=[1−(Ptest/Pcontrol)]×100
Where, Ptest is the number of animals paralyzed/dead in test compound-treated group, and Pcontrol is the total number of animals paralyzed/dead in vehicle treated group. The percent protection refers to the number of animals in compound treated group that were prevented from paralysis/death.

In a further test the test system is human platelets. Description: Collagen induced platelet aggregation in human platelets (in vitro). In kind it is cell-based. The note with it: compound concentration 30 μM, n = 3; for inhibition at 30 µM: Homo sapiens, Platelet.
Setting [2] is: Mus musculus, po, 1 h, read-out: Protection (%).

In general, inhibition refers to the drop in the measured response relative to a control, in per cent. Higher therefore signals strong suppression. For `COc1ccc(CN2C(=O)CC[C@H]2C(=O)N2CC3CC(CN(C(=O)OC(C)(C)C)C3)C2)cc1` [Compound 1m, tert-butyl-7-((S)-1-(4-methoxybenzyl)-5-oxopyrrolidine-2-carbonyl)-3,7-diazabicyclo[3.3.1]nonane-3-carboxylate], the inhibition in vivo at 30 µM, 30 µmol/kg in test [1] (setting [2]) was 45%. In the test with human platelets, this compound displayed an inhibition at 30 µM of 10 ± 3%.

Consider `CC(C)C[C@H](NC(=O)OCc1ccccc1)C(=O)N1CC2CC(CN(Cc3ccccc3)C2)C1` [Compound 1z, Benzyl(2S)-1-(7-benzyl-3,7-diazabicyclo[3.3.1]nonan-3-yl)-4-methyl-1-oxopentan-2-ylcarbamate], for which, in test [1] (setting [2]), the inhibition in vivo at 30 µM, 30 µmol/kg turned out to be 40%. This compound returned an inhibition at 30 µM in the test with human platelets of 12 ± 10%.

For the compound `O=C([C@@H]1CCC(=O)N1Cc1ccc(Cl)cc1)N1CC2CC(CN(Cc3ccccc3)C2)C1` [Compound 1h], in test [1] (setting [2]), the inhibition in vivo at 30 µM, 30 µmol/kg turned out to be 30%. Also, the inhibition at 30 µM in the test with human platelets fell in the range of 57 to 86%.

As for `Cc1ccc(CN2C(=O)CC[C@H]2C(=O)N2CC3CC(C2)CN(S(=O)(=O)c2ccc(C)cc2)C3)cc1` [Compound 1t, 1-(4-Methyl-benzyl)-5-[7-(toluene-4-sulphonyl)-3,7-diaza-bicyclo[3.3.1]nonane-3-carbonyl]-pyrrolidin-2-one], the inhibition in vivo at 30 µM, 30 µmol/kg in test [1] (setting [2]) stood at 40%. For the same compound, in the test with human platelets, 30 µM produced 37.5 ± 10.5% inhibition.

For the compound `Cc1ccc(CN2C(=O)CC[C@H]2C(=O)N2CC3CC(CN(C(=O)OC(C)(C)C)C3)C2)cc1` [Compound 1e, 7-[1-(4-Methyl-benzyl)-5-oxo-pyrrolidine-2-carbonyl]-3,7-diaza-bicyclo[3.3.1]nonane-3-carboxylic acid tert-butyl ester], in test [1] (setting [2]), the inhibition in vivo at 30 µM, 30 µmol/kg was determined as 40%. Besides, in the test on human platelets, the inhibition at 30 µM was found to be 25 ± 9%.

As to `Cc1ccc(S(=O)(=O)N2CC3CC(CN(C(=O)[C@@H]4CCC(=O)N4Cc4ccccc4Br)C3)C2)cc1` [Compound 1r, 1-(2-Bromo-benzyl)-5-[7-(toluene-4-sulphonyl)-3,7-diaza-bicyclo[3.3.1]nonane-3-carbonyl]-pyrrolidin-2-one], the inhibition in vivo at 30 µM, 30 µmol/kg in test [1] (setting [2]) turned out to be 55%. Moreover, the inhibition at 30 µM in the test with human platelets was 16.8 ± 5.66%.

On to `CC(C)(C)OC(=O)N1CC2CC(C1)CN(C(=O)[C@@H]1CCC(=O)N1Cc1c(Cl)cccc1Cl)C2` [Compound 1l, tert-butyl 7-((S)-1-(2,6-dichlorobenzyl)-5-oxopyrrolidine-2-carbonyl)-3,7-diazabicyclo [3.3.1]nonane-3-carboxylate], for which, in test [1] (setting [2]), the inhibition in vivo at 30 µM, 30 µmol/kg stood at 30%. In addition, testing at 30 µM in the test on human platelets gave an inhibition of 3 ± 3%.

For `CC(C)[C@H](NC(=O)OCc1ccccc1)C(=O)N1CC2CC(CN(Cc3ccccc3)C2)C1` [Compound 1x, Benzyl(2S)-1-(7-benzyl-3,7-diazabicyclo[3.3.1]nonan-3-yl)-3-methyl-1-oxobutan-2-yl carbamate], the inhibition in vivo at 30 µM, 30 µmol/kg in test [1] (setting [2]) was 20%. For the same compound, in the test on human platelets, the inhibition at 30 µM was 18 ± 4%.

In the case of `Cc1ccc(CN2C(=O)CC[C@H]2C(=O)N2CC3CC(CN(Cc4ccccc4)C3)C2)cc1` [Compound 1f, 5-(7-Benzyl-3,7-diaza-bicyclo[3.3.1]nonane-3-carbonyl)-1-(4-methyl-benzyl)-pyrrolidin-2-one], the inhibition in vivo at 30 µM, 30 µmol/kg in test [1] (setting [2]) turned out to be 25%. Further, testing at 30 µM in the test on human platelets gave an inhibition of 7 ± 7%.

With `CC(C)(C)OC(=O)N1CC2CC(C1)CN(C(=O)[C@@H]1CCC(=O)N1Cc1ccccc1Br)C2` [Compound 1b, 7-[1-(2-Bromo-benzyl)-5-oxo-pyrrolidine-2-carbonyl]-3,7-diaza-bicyclo[3.3.1]nonane-3-carboxylic acid tert-butyl ester], the inhibition in vivo at 30 µM, 30 µmol/kg in test [1] (setting [2]) came to 50%. In addition, the “Inhibition (%) of collagen induced platelet aggregation” value in the test on human platelets is recorded as “Ns”.

On to `CC(=O)Oc1ccccc1C(=O)O` [Aspirin, reference compound], for which the inhibition in vivo at 170 µM, 170 µmol/kg in test [1] (setting [2]) came to 40%. Also, the “Protection (%)” value in test [1] (mice, Aspirin at 170 μm (text: 170 μM/kg)) was 40 (at 170 μm) % and 40 (at %.
